Reference: ChEMBL document CHEMBL1201862, “PubChem BioAssay data set” (2004)
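Test compounds were applied to cells in 96-well plates for 48 hours at 5 doses. At the GI50, growth is halved.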 Activity calls are given as the source filed them. No stated cut-off is given here; in the data, active = GI50 up to about 1.1 µM and inactive = higher.

Columns and labels:
Assay in all cases: NCI anticancer screen, dose series, 48 h
[1] = system: 786-0
[2] = system: A498
[3] = system: CCRF-CEM
[4] = system: DU-145
[5] = system: HCC 2998
[6] = system: HOP-62
[7] = system: HOP-92
[8] = system: Hs-578T
[9] = system: KM12
[10] = system: MDA-MB-231
[11] = system: MOLT-4
[12] = system: NCI-H226
[13] = system: OVCAR-3
[14] = system: OVCAR-4
[15] = system: SF-268
[16] = system: SF-295
[17] = system: SK-MEL-28
[18] = system: SN12C
[19] = system: SR
[20] = system: SW-620

For CO/C=C(/C(=O)OC)c1ccccc1COc1cccc(C(F)(F)F)c1, the GI50 [1] was 8.09 µM (inactive), the GI50 [2] was 4.85 µM (inactive) and the GI50 [3] was 0.489 µM (active). The GI50 [4] was 11.6 µM (inactive), the GI50 [5] was 10.8 µM (inactive) and the GI50 [6] was 12.6 µM (inactive). For the same molecule, the GI50 [7] was 5.65 µM (inactive), the GI50 [8] was 10.3 µM (inactive) and the GI50 [9] was 11.3 µM (inactive). The GI50 [10] was 7.89 µM (inactive), the GI50 [11] was 1.01 µM (active) and the GI50 [12] was 1.89 µM (inactive). For the same molecule, the GI50 [13] was 10.2 µM (inactive), the GI50 [14] was 8 µM (inactive) and the GI50 [15] was 8.77 µM (inactive). For the same molecule, the GI50 [16] was 3.3 µM (inactive), the GI50 [17] was 22.6 µM (inactive) and the GI50 [18] was 8.28 µM (inactive). For the same molecule, the GI50 [19] was 0.646 µM (active).

With N#Cc1c(-c2ccc(Cl)cc2Cl)nc2[nH]nc(S)n2c1=O the GI50 [1] was > 100 µM (inactive), the GI50 [2] was > 100 µM (inactive) and the GI50 [3] was > 100 µM (inactive). For the same molecule, the GI50 [4] was > 100 µM (inactive), the GI50 [5] was > 100 µM (inactive) and the GI50 [6] was > 100 µM (inactive). The GI50 [7] was > 100 µM (inactive), the GI50 [8] was > 100 µM (inactive) and the GI50 [9] was > 100 µM (inactive). The GI50 [10] was > 100 µM (inactive), the GI50 [11] was > 100 µM (inactive) and the GI50 [12] was > 100 µM (inactive). For the same molecule, the GI50 [14] was > 100 µM (inactive), the GI50 [15] was > 100 µM (inactive) and the GI50 [16] was > 100 µM (inactive). For the same molecule, the GI50 [17] was > 100 µM (inactive), the GI50 [18] was > 100 µM (inactive) and the GI50 [19] was > 100 µM (inactive). For the same molecule, the GI50 [20] was > 100 µM (inactive).

CN(C)c1ccc(C(=NNC(=O)c2cc3ccccc3[nH]2)c2ccc(N(C)C)cc2)cc1 was tested, and the GI50 [1] was 1.53 µM (inactive), the GI50 [2] was 1.05 µM (active) and the GI50 [3] was 0.326 µM (active). For the same molecule, the GI50 [4] was 1.39 µM (inactive), the GI50 [5] was 0.193 µM (active) and the GI50 [6] was 1.77 µM (inactive). For the same molecule, the GI50 [7] was 3.22 µM (inactive), the GI50 [8] was 0.359 µM (active) and the GI50 [9] was 0.33 µM (active). The GI50 [10] was 0.457 µM (active), the GI50 [11] was 0.293 µM (active) and the GI50 [12] was 35.8 µM (inactive). The GI50 [13] was 0.276 µM (active), the GI50 [14] was 2.73 µM (inactive) and the GI50 [15] was 0.433 µM (active). For the same molecule, the GI50 [16] was 0.303 µM (active), the GI50 [18] was 1.35 µM (inactive) and the GI50 [19] was < 0.033 µM (active). For the same molecule, the GI50 [20] was 0.299 µM (active).
